# Measured values published in US20110086759A1, “CHEMICAL COMPOUNDS” (SYNGENTA CROP PROTECTION, INC., priority 2007, published 2011).
# What was measured:
# Assay type in all cases: in vivo
# [1] = test system: Alopecurus myosuroides (ALOMY); assay: Pre-emergence biological efficacy, glasshouse pot test; details: 312 h, pre-emergence, 1,000 g/ha, evaluated after 13 days (100=total damage; 0=no damage), read-out: Percentage damage ALOMY
# How it was run: (§1)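 Scores on a 0–100 damage scale were taken 13 days after spraying. Application rate 1000 or 250 g/ha, one day after sowing, in acetone/water-based aqueous spray containing 0.5% Tween 20.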
# [2] = test system: Amaranthus retoflexus (AMARE); assay: as above; details: Amaranthus retroflexus, 312 h; pre-emergence, 1,000 g/ha, evaluated after 13 days (100=total damage; 0=no damage); read-out: Percentage damage AMARE
# How it was run: as §1
# [3] = test system: Echinochloa crus-galli (ECHCG); assay: as above; details: 312 h, pre-emergence, 1,000 g/ha, evaluated after 13 days (100=total damage; 0=no damage), read-out: Percentage damage ECHCG
# How it was run: as §1
# [4] = test system: Ipomea hederaceae (IPOHE); assay: as above; details: Ipomoea hederacea, 312 h; pre-emergence, 1,000 g/ha, evaluated after 13 days (100=total damage; 0=no damage); read-out: Percentage damage IPOHE
# How it was run: as §1
# Setaria faberi (SETFA) [5] = assay: as above; details: 312 h, pre-emergence, 1,000 g/ha, evaluated after 13 days (100=total damage; 0=no damage), read-out: Percentage damage SETFA
# How it was run: as §1
# Solanum nigrum (SOLNI) [6] = assay: as above; details: 312 h, pre-emergence, 1,000 g/ha, evaluated after 13 days (100=total damage; 0=no damage), read-out: Percentage damage SOLNI
# How it was run: as §1
# [7] = test system: Alopecurus myosuroides (ALOMY); assay: Post-emergence biological efficacy, glasshouse pot test; details: 312 h, post-emergence, 1,000 g/ha, evaluated after 13 days (100=total damage; 0=no damage), read-out: Percentage damage caused to weed species, ALOMY
# How it was run: (§2)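 Scored 13 days after spraying on a 0 (no damage) to 100 (total damage) scale. Treatment was a post-emergence spray at 1000 or 250 g/ha, from acetone/water 50:50 plus 0.5% Tween 20, onto 8-day-old plants in soil pots. Growth at 24/16° C, 14 h photoperiod, 65% humidity, watered twice daily.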
# [8] = test system: Amaranthus retoflexus (AMARE); assay: as above; details: Amaranthus retroflexus, 312 h; post-emergence, 1,000 g/ha, evaluated after 13 days (100=total damage; 0=no damage); read-out: Percentage damage caused to weed species, AMARE
# How it was run: as §2
# [9] = test system: Echinochloa crus-galli (ECHCG); assay: as above; details: 312 h, post-emergence, 1,000 g/ha, evaluated after 13 days (100=total damage; 0=no damage), read-out: Percentage damage caused to weed species, ECHCG
# How it was run: as §2
# [10] = test system: Ipomea hederaceae (IPOHE); assay: as above; details: Ipomoea hederacea, 312 h; post-emergence, 1,000 g/ha, evaluated after 13 days (100=total damage; 0=no damage); read-out: Percentage damage caused to weed species, IPOHE
# How it was run: as §2
# Setaria faberi (SETFA) [11] = assay: as above; details: 312 h, post-emergence, 1,000 g/ha, evaluated after 13 days (100=total damage; 0=no damage), read-out: Percentage damage caused to weed species, SETFA
# How it was run: as §2
# Solanum nigrum (SOLNI) [12] = assay: as above; details: 312 h, post-emergence, 1,000 g/ha, evaluated after 13 days (100=total damage; 0=no damage), read-out: Percentage damage caused to weed species, SOLNI
# How it was run: as §2
Structure (SMILES),pest or weed control at 1000 g/ha [1],pest or weed control at 1000 g/ha [2],pest or weed control at 1000 g/ha [3],pest or weed control at 1000 g/ha [4],pest or weed control at 1000 g/ha (Setaria faberi (SETFA) [5]),pest or weed control at 1000 g/ha (Solanum nigrum (SOLNI) [6]),pest or weed control at 1000 g/ha [7],pest or weed control at 1000 g/ha [8],pest or weed control at 1000 g/ha [9],pest or weed control at 1000 g/ha [10],pest or weed control at 1000 g/ha (Setaria faberi (SETFA) [11]),pest or weed control at 1000 g/ha (Solanum nigrum (SOLNI) [12])
"COC(=O)c1nc(C2CC2)nc(NCc2cccc(I)c2)c1Cl [Compound 4-70, 5-Chloro-2-cyclopropyl-4-(3-iodophenylmethyl-amino)-6-methoxy-carbonylpyrimidine]",10%,40%,30%,60%,20%,30%,20%,100%,70%,100%,90%,100%
"COC(=O)c1nc(C2CC2)nc(NCc2ccccc2C)c1Cl [Compound 4-71, 5-Chloro-2-cyclopropyl-6-methoxycarbonyl-4-(2-methylphenyl-methylamino)-pyrimidine]",20%,90%,20%,70%,20%,20%,20%,100%,60%,100%,80%,90%
"COC(=O)c1nc(C2CC2)nc(NCc2cccc(C)c2)c1Cl [Compound 4-72, 5-Chloro-2-cyclopropyl-6-methoxycarbonyl-4-(3-methylphenyl-methylamino)-pyrimidine]",10%,60%,40%,40%,10%,40%,10%,100%,50%,100%,30%,100%
"COC(=O)c1nc(C2CC2)nc(NCc2ccc(C)cc2)c1Cl [Compound 4-73, 5-Chloro-2-cyclopropyl-6-methoxycarbonyl-4-(4-methylphenyl-methylamino)-pyrimidine]",10%,70%,30%,80%,20%,60%,20%,100%,60%,100%,80%,100%
"COC(=O)c1nc(C2CC2)nc(NCc2ccc(C(C)C)cc2)c1Cl [Compound 4-74, 5-Chloro-2-cyclopropyl-4-(4-isopropylphenyl-methlamino)-6-methoxycarbonyl-pyrimidine]",10%,80%,30%,60%,10%,70%,20%,90%,70%,100%,80%,100%
"COC(=O)c1nc(C2CC2)nc(NCc2ccccc2C(F)(F)F)c1Cl [Compound 4-75, 5-Chloro-2-cyclopropyl-6-methoxycarbonyl-4-(2-trifluoromethyl-phenylmethyl-amino)-pyrimidine]",10%,50%,0%,20%,10%,30%,20%,100%,50%,100%,90%,100%
"COC(=O)c1nc(C2CC2)nc(NCc2cccc(C(F)(F)F)c2)c1Cl [Compound 4-76, 5-Chloro-2-cyclopropyl-6-methoxycarbonyl-4-(3-trifluoromethyl-phenylmethyl-amino)pyrimidine]",40%,60%,60%,70%,50%,60%,40%,100%,70%,100%,90%,100%
"COC(=O)c1nc(C2CC2)nc(NCc2ccc(C(F)(F)F)cc2)c1Cl [Compound 4-77, 5-Chloro-2-cyclopropyl-6-methoxycarbonyl-4-(4-trifluoromethyl-phenylmethyl-amino)pyrimidine]",0%,50%,30%,40%,0%,40%,20%,100%,90%,100%,90%,100%
"COC(=O)c1nc(C2CC2)nc(NCc2ccccc2OC)c1Cl [Compound 4-78, 5-Chloro-2-cyclopropyl-6-methoxycarbonyl-4-(2-methoxyphenyl-methylamino)-pyrimidine]",20%,90%,60%,100%,40%,90%,30%,100%,70%,100%,80%,90%
"COC(=O)c1nc(C2CC2)nc(NCc2ccc(OC)cc2)c1Cl [Compound 4-80, 5-Chloro-2-cyclopropyl-6-methoxycarbonyl-4-(4-methoxyphenyl-methylamino)-pyrimidine]",40%,90%,50%,90%,60%,90%,30%,100%,60%,100%,90%,100%
"CCCCOc1ccc(CNc2nc(C3CC3)nc(C(=O)OC)c2Cl)cc1 [Compound 4-82, 4-(4-^nButoxyphenyl-methylamino)-5-chloro-2-cyclo-propyl-6-methoxy-carbonylpyrimidine]",40%,90%,60%,100%,80%,90%,30%,100%,60%,100%,80%,100%
